Source: US20240164385A1, “A SYNERGISTIC PLANT GROWTH STIMULANT COMPOSITION COMPRISING POTASSIUM MONO/DIFORMATE AND METAL ION COMPOUNDS TO ENHANCED METABOLIC ACTIVITIES IN PLANTS” (FERTIS INDIA PVT LTD, priority 2021, published 2024)

What was measured:
Type in all cases: in vivo
paddy grain [1] = assay: Micronutrient absorption levels in paddy grains by ICP; conditions: paddy grain samples
Experimental: Analysis of Micronutrients in Paddy Samples by ICP (Inductive Coupled Plasma) Equipment.
• i. 1 gm of grain powder added to 60 ml of perchloric acid and Nitric acid (9:1) digest for overnight. • ii. Heat at 100° C. for 2 hours until vapors change from red to white color. • iii. The resultant solution filtered through Whatman paper and makeup to 100 ml with 1% nitric acid.

paddy grain [2] = assay: Estimation of total phenol content in paddy grain samples (Folin-Ciocalteu); conditions: absorbance at 765 nm
Experimental: Folin-Ciocalteu's Phenol Reagent Preparation: Take 5 ml of folin ciocalteu's phenol reagent in 50 ml of volumetric flask and then make up to the mark with distilled water 7.5% of Na2CO3 Preparation: Take 7.5 g of Na2CO3 in 100 ml of volumetric flask and then make up to mark with distilled water. Sample Procedure: • i. […] Keep it hot plate for extraction at 95° C. for 1 hr. • iii. After 1 hr filter through whatman filter paper 1 and then make up to 25 ml of volumetric flask with 70% methanol. • iv. […] Incubation for 5 mins. • vi. After 5 mins add 4 ml of 7.5% Na2CO3 mix well then keep it dark place incubation for 1 hr. • vii. Measure the absorbance at 765 nm. • viii. […] Check OD @765 nm.

paddy grain [3] = assay: Estimation of total protein content in paddy grain samples by Lowry method; conditions: 660 nm
Experimental: To the above solution add 5 g of Na2co3 mix well. B. 1% NAK Tartrate (Sodium Potassium Tartrate) Preparation: • Dissolve 1 g of NAK tartrate in 100 ml of volumetric flask and then make up to mark with distilled water. C. […] Dissolve 100 mg of BSA in 100 ml of volumetric flask and then make up to mark with distilled water. Take 6 test tubes then add to the above solution each of 0.1, 0.2, 0.3, 0.4, 0.5, 0.6. Sample Procedure: • i. […] Then filter through whatman filter paper 1 we take test tubes and add 1 ml of each sample. • iii. Add 4.5 ml of reagent 1 and incubate for 10 mins. • iv. After incubation add 0.5 ml of reagent 2 and incubate for 30 mins. • v. Measure the absorbance at 660 nm and plot the standard graph. The Analysis of protein estimation in grain samples is performed by Lowry method with UV Vis Spectro photo meter at 660 nm.

SMILES | B (Boron) (paddy grain [1]) [ppm] | Ca (Calcium) (paddy grain [1]) [ppm] | Co (Cobalt) (paddy grain [1]) [ppm] | Cu (Copper) (paddy grain [1]) [ppm] | Fe (Iron) (paddy grain [1]) [ppm] | Mg (Magnesium) (paddy grain [1]) [ppm] | Mn (Manganese) (paddy grain [1]) [ppm] | Zn (Zinc) (paddy grain [1]) [ppm] | Phenol Content (paddy grain [2]) [ppm] | Total Protein content (paddy grain [3]) [ppm]
O=C[O-].[K+] [Potassium formate] | 38.4 | 401.7 | 14.2 | 37.0 | 401.0 | 646.0 | 46.5 | 50.6 | 16.69 | 0.086
O=CO.O=C[O-].[K+] [Potassium diformate] | 35.9 | 399.0 | 14.2 | 35.0 | 397.0 | 678.0 | 50.4 | 66.6 | 17.96 | 0.084
